From US11311538B2, “Compositions and methods for targeting cancers” (YALE UNIVERSITY, priority 2018, dated 2022)

What was measured:
[1] = tested on: HEK293FT shSDHB / shFH / shCTRL cells; experiment: Clonogenic survival assay, DNA damaging agents, SDHB or FH knockdown cells; assay type: cell-based, human; details: SDHB or FH knockdown cells compared to control shRNA
Procedure: (§1) Western Blot analyses. Western blot analysis of protein levels was conducted by loading 30 μg of whole cell lysate onto a 4-20% polyacrylamide gel. Total protein was transferred to a nitrocellulose membrane. After blocking with 5% milk, membranes were incubated with primary antibodies. Antibodies used were: Rabbit monoclonal anti-Fumarase (D9C5,Cell Signaling Technologies) 1:1000 in 5% BSA, mouse monoclonal anti-SDHB (21A11AE7, Abcam) 1:1000 in % 5 milk, mouse monoclonal anti-Vinculin (SPM227, Abcam) 1:1000 in 5% milk, rabbit polyclonal anti-Histone 3 Lysine 36 trimethyl (9050, Abcam) 1:500 in 5% BSA, anti-Histone 3 Lysine 9 trimethyl (D4W1U, Cell Signaling Technologies) 1:1000 in 5% BSA, mouse monoclonal anti-Beta Actin (60008, Protein Tech) 1:5000 5% milk, rabbit Polyclonal anti-Histone H3 (ab1791, Abcam 1:5000 5% BSA), rabbit Polyclonal anti-PAR (4336-BPC-100, Trevigen) 1:5000 5% BSA, mouse monoclonal anti-GAPDH (60004 Protein Tech) 1:5000 5% milk, mouse monoclonal anti-BRCA2 (ab1, Millipore, 1:1000 5% Milk), mouse monoclonal anti-BRCA1 (D-9, Santa Cruz, 1:200 5% milk), mouse monoclonal anti-RAD51(14B4 Novus bio, 1:1000 5% milk). Patient sample blots were reprobed. […] Doxycycline induced knockdown was monitored by western blot as well as by RFP fluorescence from the internal and dox-inducible reporter on the TRIPZ construct. […]

U2OS DR-GFP cells = experiment: U2OS DR-GFP HR assay; assay type: cell-based; details: for suppression of HR, DR-GFP assay: metabolite added to cell culture medium, 24 h (FIG. 3A)
KDM4A and KDM4B = experiment: Western blot of histone trimethylation (KDM4A/B activity) in YUNK1 cells; assay type: cell-based, human; details: increasing doses, 24 h (FIGS. 7E-7F)
Procedure: Western Blot analyses. Western blot analysis of protein levels was conducted by loading 30 μg of whole cell lysate onto a 4-20% polyacrylamide gel. Total protein was transferred to a nitrocellulose membrane. After blocking with 5% milk, membranes were incubated with primary antibodies. Antibodies used were: Rabbit monoclonal anti-Fumarase (D9C5,Cell Signaling Technologies) 1:1000 in 5% BSA, mouse monoclonal anti-SDHB (21A11AE7, Abcam) 1:1000 in % 5 milk, mouse monoclonal anti-Vinculin (SPM227, Abcam) 1:1000 in 5% milk, rabbit polyclonal anti-Histone 3 Lysine 36 trimethyl (9050, Abcam) 1:500 in 5% BSA, anti-Histone 3 Lysine 9 trimethyl (D4W1U, Cell Signaling Technologies) 1:1000 in 5% BSA, mouse monoclonal anti-Beta Actin (60008, Protein Tech) 1:5000 5% milk, rabbit Polyclonal anti-Histone H3 (ab1791, Abcam 1:5000 5% BSA), rabbit Polyclonal anti-PAR (4336-BPC-100, Trevigen) 1:5000 5% BSA, mouse monoclonal anti-GAPDH (60004 Protein Tech) 1:5000 5% milk, mouse monoclonal anti-BRCA2 (ab1, Millipore, 1:1000 5% Milk), mouse monoclonal anti-BRCA1 (D-9, Santa Cruz, 1:200 5% milk), mouse monoclonal anti-RAD51(14B4 Novus bio, 1:1000 5% milk). Patient sample blots were reprobed. Reprobed blots were stripped with Restore Plus Stripping Buffer (Thermo Fischer) and re-blocked with 5% milk prior to reprobing. Blots were tested to ensure all residual detection reagents were removed. Dual Color Precision Plus Protein standard was used as a molecular weight standard for western blots. Cell Culture. YUNK1 cells were generated in culture from uninvolved cortical renal tissue from a patient undergoing a radical nephrectomy for kidney cancer. […] YUNK1 was immortalized with a lentiviral vector containing SV40 Large T antigen (Addgene plasmid #22298). Lentiviral production was performed using HEK293FT (ATCC) using plasmids pMDLg/pRRE, pRSV-Rev, pCMV-VSG-G (Addgene #12251, 12253, and 8454). YUNK1 cells were maintained in DMEM+10% FBS+1% Pen/Strep. HEK293FT cells (ATCC) were maintained in DMEM+10% FBS+1% Pen/Strep. After lentiviral infections with TRIPZ-shRNA or GIPZ lentiviruses, cells were maintained in DMEM+10% FBS+1% Pen/Strep+2 μg/mL Puromycin. For dox inducible shRNAs, expression was induced with 2 μg/mL doxycycline. Doxycycline induced knockdown was monitored by western blot as well as by RFP fluorescence from the internal and dox-inducible reporter on the TRIPZ construct. U2OS DR-GFP cells were maintained in DMEM+10% FBS+1% Pen/Strep. UOK 262 and UOK 268 HLRCC cells are previously described in Yang, et al., 2010, Cancer Gent. Cytogent. 196:45-55; Yang, et al., 205, Cancer Genet. 205:377-390. They were obtained courtesy of W. M. Linehan and were maintained in DMEM+10% FBS+1% Pen/Strep+1 mM Sodium-Pyruvate. NCCFH1 cells were maintained in DMEM+10% FBS+1% Pen/Strep+1 mM Sodium-Pyruvate. […]

UOK 268 = experiment: Neutral comet assay in UOK 268 HLRCC cells; assay type: cell-based, human; details: for levels of DNA DSBs after exogenous metabolite: FH-deficient UOK 268 cells, 24 h (FIG. 3H)
UOK 262 [2] = experiment: Neutral comet assay in UOK 262 HLRCC cells; assay type: cell-based, human; details: for levels of DNA DSBs after exogenous metabolite: FH-deficient UOK 262 cells, 24 h (FIG. 3H)
UOK 262 [3] = experiment: Clonogenic survival assay in cell lines of renal origin; assay type: cell-based, human; details: FIG. 4C (BMN-673), FIG. 8J (mitomycin C)
HEK293FT and YUNK1 cells = experiment: Clonogenic survival assay, PARP inhibitors, knockdown or metabolite-treated cells; assay type: cell-based, human
HEK293FT cells = experiment: Immunofluorescence foci assay in HEK293FT cells; assay type: cell-based, human; details: metabolite added to culture media (FIGS. 3E-3G)
Procedure: as §1

YUNK1 cells = experiment: Immunofluorescence foci assay in YUNK1 cells; assay type: cell-based, human
Procedure: as §1

Compound: N.N.[Cl][Pt][Cl] [cisplatin]
- clonogenic survival in response to DNA damaging agent [1]: substantially reduced survival

Compound: COC(=O)CCC(=O)OC [dimethyl-succinate]
- suppression of HR, DR-GFP assay (U2OS DR-GFP cells): sufficient to suppress HR in a dose-dependent manner

Compound: O=C(O)/C=C/C(=O)O [fumarate]
- H3K9me3 levels (KDM4A and KDM4B): dose-dependent increase
- H3L36me3 levels (KDM4A and KDM4B): dose-dependent increase
- levels of DNA DSBs after exogenous metabolite (UOK 268): no further effect
- levels of DNA DSBs after exogenous metabolite (UOK 262 [2]): no further effect

Compound: CO[C@@]12[C@H](COC(N)=O)C3=C(C(=O)C(C)=C(N)C3=O)N1C[C@@H]1N[C@@H]12 [mitomycin C]
- clonogenic survival in response to DNA damaging agent [1]: substantially reduced survival
- sensitivity of UOK 262 relative to FH-proficient cell lines of renal origin, clonogenic survival (UOK 262 [3]): markedly more sensitive

Compound: CCOC(=O)/C=C/C(=O)O [monoethyl-fumarate]
- suppression of HR, DR-GFP assay (U2OS DR-GFP cells): sufficient to suppress HR in a dose-dependent manner

Compound: CCOC(=O)CCC(=O)O [monoethyl-succinate]
- suppression of HR, DR-GFP assay (U2OS DR-GFP cells): sufficient to suppress HR in a dose-dependent manner

Compound: O=C(c1cc(Cc2n[nH]c(=O)c3ccccc23)ccc1F)N1CCN(C(=O)C2CC2)CC1 [olaparib]
- sensitivity to the PARP inhibitor, clonogenic survival (HEK293FT and YUNK1 cells; knockdown of SDHB and FH or exogenous dimethyl-fumarate or succinate (FIGS. 4A-4B, 8E-8I)): dramatic sensitivity

Compound: O=C(O)CCC(=O)O [succinate]
- H3K9me3 levels (KDM4A and KDM4B): dose-dependent increase
- H3L36me3 levels (KDM4A and KDM4B): dose-dependent increase
- levels of DNA DSBs after exogenous metabolite (UOK 268): no further effect
- levels of DNA DSBs after exogenous metabolite (UOK 262 [2]): no further effect
- suppression of HR, DR-GFP assay (U2OS DR-GFP cells): sufficient to suppress HR in a dose-dependent manner
- p53BP1 foci (HEK293FT cells): Increases
- γH2AX foci (HEK293FT cells): Increases
- γH2AX foci (YUNK1 cells; 24 h (FIGS. 6I-6J)): Increases
- p53BP1 foci (YUNK1 cells; 24 h (FIGS. 6K-6L)): Increases
- induction of sensitivity to PARP inhibitors olaparib and BMN-673 by exogenous metabolite (HEK293FT and YUNK1 cells; metabolite added to culture media (2 mM succinate; 30 or 60 μM dimethyl-fumarate)): induced dramatic sensitivity

Compound: COC(=O)CCC(=O)C(=O)OC [αKG, dimethyl-α-ketoglutarate]
- rescue of elevated DSB phenotype (comet assay) (UOK 268; FH deficient UOK 268 cells, 2 mM dimethyl-α-ketoglutarate (FIG. 3J)): rescued the phenotype
- rescue of elevated DSB phenotype (comet assay) (UOK 262 [2]; FH deficient UOK 262 cells, 2 mM dimethyl-α-ketoglutarate (FIG. 3J)): rescued the phenotype
- rescue of HR defect induced by succinate or fumarate, DR-GFP assay (U2OS DR-GFP cells; co-treatment with dimethyl-succinate or dimethyl-fumarate (FIG. 3L)): rescued
